# Assay results as given in patent publication US20070099962A1, “5,6-Dihydropyrin-2-one compounds useful as inhibitors of thrombin” (priority 2003, published 2007).
# Molecular target: T1, Human α-thrombin (Homo sapiens, UniProt P00734)
# T1 construct: Human α-thrombin, Sigma Chemical Co. or Hematologic Technologies; purchased Sigma Chemical Co. or Hematologic Technologies
# Test: Test B: Determination of Thrombin Inhibition with a Chromogenic, Robotic Assay
# Type: biochemical
# Details: chromogenic substrate S-2366, 40 minutes incubation at 37° C.
# Source text: The thrombin clotting time (TT) is expressed as absolute values (seconds) as well as the ratio of TT without inhibitor (TT0) to TT with inhibitor (TTi). The latter ratios (range 1-0) are plotted against the concentration of inhibitor (log transformed) and fitted to sigmoidal dose-response curves according to the equation y=a/[1+(x/IC50)^s] where: a=maximum range, i.e. 1; s=slope of the dose-response curve; and IC50=the concentration of inhibitor that doubles the clotting time. The calculations are processed on a PC using the software program GraFit Version 3, setting equation equal to: Start at 0, define end=1 (Erithacus Software, Robin Leatherbarrow, Imperial College of Science, London, UK). […]
# The thrombin inhibitor potency is measured with a chromogenic substrate method, in a Plato 3300 robotic microplate processor (Rosys AG, CH-8634 Hombrechtikon, Switzerland), using 96-well, half volume microtitre plates (Costar, Cambridge, Mass., USA; Cat No 3690). Stock solutions of test substance in DMSO (72 μL), 0.1-1 mmol/L, are diluted serially 1:3 (24+48 μL) with DMSO to obtain ten different concentrations, which are analysed as samples in the assay. […] The linear absorbance increment during 40 minutes incubation at 37° C. is used for calculation of percentage inhibition for the test samples, as compared to blanks without inhibitor. […]
row,IC50 [nM],Compound
1,240,"CC1=C(CC(=O)NCc2ccc(C(=N)N)cc2)C(=O)N(NS(=O)(=O)Cc2ccccc2)CC1 [2(i), N-(4-Carbamimidoylbenzyl)-2-(4-methyl-2-oxo-1-phenylmethanesulfonylamino-1,2,5,6-tetrahydropyridin-3-yl)acetamide]"
2,25.6,"CC1=C(CC(=O)NCc2ccc(C(=N)N)cc2)C(=O)N(NS(=O)(=O)c2cccc3ccccc23)CC1 [2(iii), N-(4-Carbamimidoylbenzyl)-2-[4-methyl-1-(naphthalene-1-sulfonylamino)-2-oxo-1,2,5,6-tetrahydropyridin-3-yl]acetamide]"
